Experimental data taken from ChEMBL document CHEMBL4184288, “Marine bis-γ-pyrone polypropionates of onchidione family and their effects on the XBP1 gene expression” (Bioorg Med Chem Lett, 2018).
Activity calls are given as the source filed them. The rule behind the calls is not given here.

Assays:
Mus musculus [1] = organism: Mus musculus; experiment: Activation of XBP1 mRNA splicing in tunicamycin-stimulated mouse B16F10 cells harboring XBP1-DBD-luc at 10 ug/ml treated 24 hrs post tunicamycin measured after 8 hrs by luciferase reporter gene assay relative to control
Mus musculus [2] = organism: Mus musculus; experiment: Activation of XBP1 mRNA splicing in tunicamycin-stimulated mouse B16F10 cells harboring XBP1-DBD-luc treated 24 hrs post tunicamycin measured after 8 hrs by luciferase reporter gene assay relative to control
Mus musculus [3] = organism: Mus musculus; experiment: Activation of XBP1 mRNA splicing in tunicamycin-stimulated mouse B16F10 cells harboring XBP1-DBD-luc at 1 ug/ml after 8 hrs by luciferase reporter gene assay relative to control

CCC(=O)[C@H](C)c1oc([C@H](C)[C@@H]2O[C@](O)([C@@H](C)c3oc(CC)c(C)c(=O)c3C)[C@@H](C)[C@@H](OC(=O)CC(C)C)[C@@H]2C)c(C)c(=O)c1C
Activity (Mus musculus [1]): 210% | fold change (FC) (Mus musculus [1]): 2

CCC(=O)[C@@H](C)c1oc([C@H](C)[C@@H]2O[C@](O)([C@@H](C)c3oc(CC)c(C)c(=O)c3C)[C@@H](C)[C@@H](OC(=O)CC(C)C)[C@@H]2C)c(C)c(=O)c1C
Activity (Mus musculus [1]): 218% | fold change (FC) (Mus musculus [1]): 2

CCC(=O)O[C@@H](CC)[C@H](C)c1oc([C@H](C)[C@@H]2O[C@](O)([C@@H](C)c3oc(CC)c(C)c(=O)c3C)[C@@H](C)[C@@H](OC(=O)CC(C)C)[C@@H]2C)c(C)c(=O)c1C
Activity (Mus musculus [2]): inactive

CCc1oc([C@H](C)[C@@]2(O)O[C@@H]([C@@H](C)c3oc([C@@H](C)[C@@H](O)CC)c(C)c(=O)c3C)[C@@H](C)[C@H](OC(=O)CC(C)C)[C@@H]2C)c(C)c(=O)c1C
Activity (Mus musculus [2]): inactive

CCCCCCCCCCCCC/C=C/C(=O)N[C@H]1[C@H](O[C@H]2O[C@H](CO)[C@@H](O)[C@H](O)[C@H]2NC(C)=O)O[C@H](CC(O)[C@H]2O[C@@H](n3ccc(=O)[nH]c3=O)[C@H](O)[C@@H]2O)[C@H](O)[C@@H]1O (some centres undefined)
Activity (Mus musculus [3]): 178%

CCc1oc([C@H](C)[C@@]2(O)O[C@@H]([C@@H](C)c3oc([C@@H](C)[C@H](CC)OC(C)=O)c(C)c(=O)c3C)[C@@H](C)[C@H](OC(=O)CC(C)C)[C@@H]2C)c(C)c(=O)c1C
Activity (Mus musculus [1]): 234% | fold change (FC) (Mus musculus [1]): 2
